Test results reported in PMC4774911, “Biochemical Screening of Five Protein Kinases from Plasmodium falciparum against 14,000 Cell-Active Compounds” (PLoS ONE, 2016).

Tests used:
[1] = biological target: T1, Plasmodium falciparum calcium-dependent protein kinase 4 (CDPK4) (Plasmodium falciparum, UniProt Q8IBS5); experiment: CDPK4 Kinase-Glo ATP-consumption screen and dose-response; format: biochemical; conditions: hits below 1 uM
T1 construct: 6-Histidine (N); made in house
T1 sequence (Q8IBS5 1-528): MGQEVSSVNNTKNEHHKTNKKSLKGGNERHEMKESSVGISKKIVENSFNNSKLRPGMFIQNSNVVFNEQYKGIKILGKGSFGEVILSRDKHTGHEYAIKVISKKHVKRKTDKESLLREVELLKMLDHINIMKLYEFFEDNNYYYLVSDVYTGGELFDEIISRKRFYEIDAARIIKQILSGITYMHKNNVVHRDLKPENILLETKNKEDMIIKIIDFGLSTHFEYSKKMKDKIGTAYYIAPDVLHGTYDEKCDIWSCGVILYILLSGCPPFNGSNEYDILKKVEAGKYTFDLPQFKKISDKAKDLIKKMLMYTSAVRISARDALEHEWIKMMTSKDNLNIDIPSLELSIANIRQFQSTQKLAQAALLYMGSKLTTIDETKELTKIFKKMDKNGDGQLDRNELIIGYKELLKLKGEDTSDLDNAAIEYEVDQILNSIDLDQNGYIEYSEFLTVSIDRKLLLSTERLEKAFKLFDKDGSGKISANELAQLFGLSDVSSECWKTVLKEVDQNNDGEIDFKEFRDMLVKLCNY
Protocol: Biochemical assays were performed in white 384-well plates (Nunc). Liquid transfers were done manually with 8-channel pipets. Compounds were initially tested in a single-point screen (final concentration 1 μM). […] The catalytic activity of each kinase was considered proportional to ATP consumed, as determined from measurements of residual [ATP] with the luciferase-based reagent Kinase-Glo (Promega) following incubation. Luminescence (proportional to residual [ATP]) was measured on the plate readers FLx800 (BioTek Instruments, Winooski, VT, USA) and MicroBeta^2 (PerkinElmer, Waltham, MA, USA). Incubation times were chosen to ensure near-complete ATP depletion in the absence of inhibition, thus maximizing the difference in signal between inhibited and uninhibited wells.
40 μM Syntide-2 was used as a substrate; BKI-1 [14] was used as a control inhibitor, while reaction mixtures lacking Syntide-2 were included as an additional negative control. Incubation time was 90 minutes. Reactions were terminated by adding excess EGTA (5 mM), which sequesters Ca^2+ and halts calcium-dependent kinase activity.

[2] = test system: HepG2 cells; conditions: HepG2; downloaded from ChEMBL; ref F.J. Gamo et al., Nature 2010; cited from earlier work
[3] = test system: P. falciparum 3D7 cells; conditions: 3D7; downloaded from ChEMBL; ref F.J. Gamo et al., Nature 2010; cited from earlier work
[4] = biological target: PKG (Plasmodium falciparum, UniProt Q8I719); experiment: PKG IC50 (supplementary data file); format: biochemical
Chain of PKG (Q8I719 whole entry): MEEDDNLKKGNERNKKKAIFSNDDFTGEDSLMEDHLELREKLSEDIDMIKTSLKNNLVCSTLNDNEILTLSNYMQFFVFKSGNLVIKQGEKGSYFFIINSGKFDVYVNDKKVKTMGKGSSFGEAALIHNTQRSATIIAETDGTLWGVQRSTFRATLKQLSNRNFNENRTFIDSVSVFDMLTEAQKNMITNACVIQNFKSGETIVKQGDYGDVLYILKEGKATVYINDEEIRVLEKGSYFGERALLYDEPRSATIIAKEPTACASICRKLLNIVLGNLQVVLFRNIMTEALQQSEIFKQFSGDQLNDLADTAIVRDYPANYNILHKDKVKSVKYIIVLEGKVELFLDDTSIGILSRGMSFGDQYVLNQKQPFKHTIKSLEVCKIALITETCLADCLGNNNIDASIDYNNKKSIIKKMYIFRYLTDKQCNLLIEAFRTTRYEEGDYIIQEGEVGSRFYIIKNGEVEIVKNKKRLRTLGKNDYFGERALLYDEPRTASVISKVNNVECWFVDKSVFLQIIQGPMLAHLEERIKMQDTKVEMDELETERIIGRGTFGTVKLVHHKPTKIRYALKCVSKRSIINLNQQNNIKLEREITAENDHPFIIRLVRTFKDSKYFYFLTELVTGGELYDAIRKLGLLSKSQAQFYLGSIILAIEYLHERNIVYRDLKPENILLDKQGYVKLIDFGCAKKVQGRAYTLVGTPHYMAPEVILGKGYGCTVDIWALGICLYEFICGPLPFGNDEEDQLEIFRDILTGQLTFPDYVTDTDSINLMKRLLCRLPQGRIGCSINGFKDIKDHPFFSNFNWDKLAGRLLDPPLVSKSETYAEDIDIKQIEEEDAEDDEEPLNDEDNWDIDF
From the text: Supplement pone.0149996.s003.xls, sheet "combined_1_sorted"

[5] = biological target: T2, Plasmodium falciparum calcium-dependent protein kinase 1 (CDPK1) (Plasmodium falciparum, UniProt P62344); experiment: CDPK1 Kinase-Glo ATP-consumption screen and dose-response; format: biochemical; conditions: hits below 1 uM; read-out: CDPK1 IC50
T2 construct: 6-Histidine (N); made in house
T2 sequence (P62344 whole entry): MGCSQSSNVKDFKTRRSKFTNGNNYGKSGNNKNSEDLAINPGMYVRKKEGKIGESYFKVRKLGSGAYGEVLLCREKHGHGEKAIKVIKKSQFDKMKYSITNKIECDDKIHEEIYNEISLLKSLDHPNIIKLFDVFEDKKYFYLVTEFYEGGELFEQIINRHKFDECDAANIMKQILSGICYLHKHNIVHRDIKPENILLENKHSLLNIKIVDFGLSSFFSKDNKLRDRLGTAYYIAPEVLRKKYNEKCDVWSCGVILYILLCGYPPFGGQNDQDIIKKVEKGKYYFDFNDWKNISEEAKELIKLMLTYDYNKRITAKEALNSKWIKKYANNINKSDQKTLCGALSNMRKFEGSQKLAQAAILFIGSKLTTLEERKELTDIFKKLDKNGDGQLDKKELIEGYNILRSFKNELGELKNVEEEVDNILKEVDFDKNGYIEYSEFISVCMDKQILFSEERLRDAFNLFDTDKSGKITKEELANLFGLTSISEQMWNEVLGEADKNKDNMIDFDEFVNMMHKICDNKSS
How it was run: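 Single-point testing used 1 μM final compound, then dose-response, against CDPK4 and CDPK1 with Syntide-2 (40 μM) as substrate. After 90 min, reactions were halted by 5 mM EGTA, and kinase activity was inferred from depleted ATP via Kinase-Glo luminescence.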

[6] = test system: 3D7 PFLDH; set-up: method as in F.J. Gamo et al., Nature 2010; concentration or dose not given beside the values; conditions: downloaded from ChEMBL, ref F.J. Gamo et al., Nature 2010; cited from earlier work
[7] = test system: DD2; set-up: method as in F.J. Gamo et al., Nature 2010; conditions: downloaded from ChEMBL, ref F.J. Gamo et al., Nature 2010; cited from earlier work

| SMILES | IC50 [1] | PCT_INHIB_HEPG2 [2] | PCT_IHB_3D7 [3] | pXC50_3D7 [3] | IC50 [4] | IC50 [5] | PCT_INHIB_3D7_PFLDH [6] | PCT_INHB_DD2 [7] |
| --- | --- | --- | --- | --- | --- | --- | --- | --- |
| Cc1cccc(Nc2nc(N[C@@H]3CCCNC3)nc3cc[nH]c(=O)c23)c1.O=C(O)C(F)(F)F [TCMDC-134835] | 0.076 µM | 55% | 99% | 6.166 | 0.422 µM | 0.023 µM | 1% | 98% |
| Cc1cccc(Nc2nc(NCCCCN)nc3cc[nH]c(=O)c23)c1.O=C(O)C(F)(F)F [TCMDC-134946] | 0.166 µM | 34% | 98% | 6.135 | 1.58 µM | 0.566 µM | 0% | 97% |
| O=C(O)C(F)(F)F.O=c1[nH]ccc2nc(N[C@@H]3CCNC3)nc(Nc3cc(Cl)cc(Cl)c3)c12 [TCMDC-135052] | 0.446 µM | 99% | 100% | 6.132 | 0.486 µM | 0.033 µM | 0% | 99% |
| NCCCNc1nc(Nc2cccc(C(N)=O)c2)c2c(=O)[nH]ccc2n1.O=C(O)C(F)(F)F [TCMDC-135053] | 0.967 µM | 9% | 99% | 6.226 | 7.33 µM | 0.75 µM | 0% | 49% |
| NS(=O)(=O)c1cccc(Nc2nc(N[C@@H]3CCNC3)nc3cc[nH]c(=O)c23)c1.O=C(O)C(F)(F)F [TCMDC-135057] | 0.135 µM | 7% | 99% | 6.027 | 1.85 µM | 0.083 µM | 0% | 98% |
| CCn1c(-c2nonc2N)nc2c(-c3cc4ccccc4s3)ncc(C(=O)N3CCC(N)C3)c21.O=C(O)C(F)(F)F (centres unmarked) [TCMDC-135281] | 0.089 µM | 99% | 98% | 6.06 | 6.94 µM | – | 5% | 66% |
| CCn1c(-c2nonc2N)nc2c(-c3ccccc3)ncc(OCCCNCCCN3CCOCC3)c21.O=C(O)C(F)(F)F [TCMDC-135858] | 0.038 µM | 28% | 100% | 6.174 | 0.126 µM | 0.042 µM | 0% | 91% |
| CCn1c(-c2nonc2N)nc2c(-c3cccc(Cl)c3)ncc(OCCCNCCc3c[nH]cn3)c21.O=C(O)C(F)(F)F [TCMDC-135919] | 0.046 µM | 16% | 100% | 6.007 | 2.21 µM | 0.138 µM | 0% | 98% |
| CCn1c(-c2nonc2N)nc2c(-c3cccc(Cl)c3)ncc(OCCCNCc3cnc(C)nc3N)c21.O=C(O)C(F)(F)F [TCMDC-135956] | 0.145 µM | 21% | 93% | 5.996 | 9.21 µM | 0.271 µM | 3% | 48% |
| CCn1c(-c2nonc2N)nc2c(-c3ccccc3)ncc(OCCCCNCCc3ncc[nH]3)c21.O=C(O)C(F)(F)F [TCMDC-136000] | 0.043 µM | 34% | 92% | 6.07 | 0.953 µM | 0.094 µM | 0% | 42% |
| CCn1c(-c2nonc2N)nc2c(-c3cccc(NC(=O)Nc4ccc(C(F)(F)F)cc4)c3)ncc(OCCCN)c21.O=C(O)C(F)(F)F [TCMDC-136179] | 0.03 µM | 36% | 94% | 5.981 | 0.264 µM | 0.959 µM | 6% | 63% |
| CCn1c(-c2nonc2N)nc2c(-c3cccc(NC(=O)Nc4ccc5c(c4)CCC5)c3)ncc(OCCCN)c21.O=C(O)C(F)(F)F [TCMDC-136191] | 0.059 µM | 26% | 99% | 6.106 | 5.05 µM | 0.085 µM | 0% | 94% |
| CCn1c(-c2nonc2N)nc2c(-c3cccc(NC(=O)Nc4cccc(Cl)c4)c3)ncc(OCCCN)c21.O=C(O)C(F)(F)F [TCMDC-136193] | 0.081 µM | 9% | 91% | 6.027 | 0.926 µM | 0.379 µM | 0% | 78% |
| CCn1c(-c2nonc2N)nc2c(-c3cccc(NC(=O)Nc4ccc(C#N)cc4)c3)ncc(OCCCN)c21.O=C(O)C(F)(F)F [TCMDC-136194] | 0.084 µM | 1% | 85% | 5.821 | 0.595 µM | 0.235 µM | 0% | 80% |
| CCn1c(-c2nonc2N)nc2c(-c3cccc(NC(=O)Nc4cccc(C#N)c4)c3)ncc(OCCCN)c21.O=C(O)C(F)(F)F [TCMDC-136195] | 0.17 µM | 37% | 92% | 6.1747 | 0.158 µM | 0.182 µM | 0% | 80% |
